The test system of this assay is BRAF V600E mutant mice. Nature of the assay: Seizure reduction by BRAF V600E specific inhibitor in BRAF V600E mutant mice (video-EEG brainwave monitoring). In kind it is in vivo, mouse.

One molecule from US20200360537A1, “A GANGLIOGLIOMA-INDUCED ANIMAL MODEL AND A METHOD FOR DIAGNOSING AND TREATING GANGLIOGLIOMA AND RELATED DISEASES” (KOREA ADVANCED INSTITUTE OF SCIENCE AND TECHNOLOGY, priority 2017, published 2020) can be followed below.

Each structure is given as a SMILES string.

As to `CCCS(=O)(=O)Nc1ccc(F)c(C(=O)c2c[nH]c3ncc(-c4ccc(Cl)cc4)cc23)c1F` [BRAF V600E specific inhibitor, Vemurafenib], the seizure frequency result is, setting by setting: (acute intracerebroventricular injection (3 times/day, 5 uL injection for 8 minutes), FIG. 17 left) “not reduced”; (oral administration (PO, per oral), FIG. 17 right) “not reduced”. The “seizures over time (electrophysiologically confirmed)” value (cICV treatment for 6 weeks, FIG. 15 C) is given as “continuously reduced”. In addition, the “reduction of icta (ictal) seizures” value (chronic intracranioventricular injection (cICV), 500 um PLX4032 via osmotic pump, vs vehicle, FIG. 15 B) is on record as “about 4 times”.
